Calls of active or inactive are those of the source. No cut-off for these calls is given here.
Tests used:
[1] = Induction of apoptosis in human RKOP3 cells assessed as live cells at 2 uM measured after 24 hrs by annexinV-FITC/propidium iodide staining based flow cytometry analysis (reference value: 98.19 %); assay type: functional
DU-145 [2] = test: Antiproliferative activity against human DU145 cells assessed as reduction in cell viability measured after 48 hrs by MTT assay; assay type: functional, cell-based; conditions: for IC50: DU-145, 48 h
HEK293 = test: Cytotoxicity against human HEK293 cells assessed as reduction in cell viability measured after 48 hrs by MTT assay; assay type: cell-based
DU-145 [3] = test: Induction of apoptosis in human DU145 cells assessed as late apoptotic cells at 2.54 uM measured after 24 hrs by annexinV-FITC/propidium iodide staining based flow cytometry analysis (reference value: 0.05 %); assay type: functional
DU-145 [4] = test: Induction of apoptosis in human DU145 cells assessed as live cells at 2.54 uM measured after 24 hrs by annexinV-FITC/propidium iodide staining based flow cytometry analysis (reference value: 97.09 %); assay type: functional
[5] = (§1) Antiproliferative activity against human RKOP3 cells assessed as reduction in cell viability measured after 48 hrs by MTT assay; assay type: functional, cell-based
[6] = Induction of apoptosis in human RKOP3 cells assessed as early apoptotic cells at 2 uM measured after 24 hrs by annexinV-FITC/propidium iodide staining based flow cytometry analysis (reference value: 1.8 %); assay type: functional
[7] = Induction of apoptosis in human RKOP3 cells assessed as late apoptotic cells at 2 uM measured after 24 hrs by annexinV-FITC/propidium iodide staining based flow cytometry analysis (reference value: 0.01 %); assay type: functional
[8] = Induction of apoptosis in human RKOP3 cells assessed as necrotic cells at 2 uM measured after 24 hrs by annexinV-FITC/propidium iodide staining based flow cytometry analysis (reference value: 0 %); assay type: functional
DU-145 [9] = test: Induction of apoptosis in human DU145 cells assessed as early apoptotic cells at 2.54 uM measured after 24 hrs by annexinV-FITC/propidium iodide staining based flow cytometry analysis (reference value: 2.34 %); assay type: functional
DU-145 [10] = test: Induction of apoptosis in human DU145 cells assessed as necrotic cells at 2.54 uM measured after 24 hrs by annexinV-FITC/propidium iodide staining based flow cytometry analysis (reference value: 0.52 %); assay type: functional
HeLa = test: Antiproliferative activity against human HeLa cells assessed as reduction in cell viability measured after 48 hrs by MTT assay; assay type: functional, cell-based
Homo sapiens = species on record: Homo sapiens; test: as §1; assay type: functional, cell-based
A549 = test: Antiproliferative activity against human A549 cells assessed as reduction in cell viability measured after 48 hrs by MTT assay; assay type: functional, cell-based; conditions: for IC50: A549, 48 h
Tubulin (Homo sapiens) [11] = target: T1, Tubulin (Homo sapiens) (UniProt P68371+Q9H4B7+P0DPH7+P68366+Q13509+Q71U36+P04350+Q3ZCM7+P07437+P68363+Q9BQE3+Q6PEY2+Q13885+Q9BVA1+Q9BUF5); test: Inhibition of tubulin […] in human DU145 cells assessed as increase in soluble fraction of tubulin at […] measured after 24 hrs by Western blot analysis; assay type: cell-based; conditions: DU-145
DU-145 [12] = test: Induction of apoptosis in human DU145 cells assessed as live cells at 1.5 uM measured after 48 hrs by annexinV-FITC/propidium iodide staining based flow cytometry analysis (reference value: 97.09 %); assay type: functional
DU-145 [13] = test: Induction of apoptosis in human DU145 cells assessed as early apoptotic cells at 3.5 uM measured after 48 hrs by annexinV-FITC/propidium iodide staining based flow cytometry analysis (reference value: 2.34 %); assay type: functional
DU-145 [14] = test: Induction of apoptosis in human DU145 cells assessed as late apoptotic cells at 3.5 uM measured after 48 hrs by annexinV-FITC/propidium iodide staining based flow cytometry analysis (reference value: 0.05 %); assay type: functional
DU-145 [15] = test: Cell cycle arrest in human DU145 cells assessed as accumulation at G0/G1 phase at 5 uM measured after 24 hrs by propidium iodide staining based flow cytometry analysis (reference value: 58.2 %); assay type: functional
DU-145 [16] = test: Induction of apoptosis in human DU145 cells assessed as necrotic cells at 5 uM measured after 48 hrs by annexinV-FITC/propidium iodide staining based flow cytometry analysis (reference value: 0.52 %); assay type: functional
DU-145 [17] = test: Induction of apoptosis in human DU145 cells assessed as live cells at 5 uM measured after 48 hrs by annexinV-FITC/propidium iodide staining based flow cytometry analysis (reference value: 97.09 %); assay type: functional
DU-145 [18] = test: Induction of apoptosis in human DU145 cells assessed as early apoptotic cells at 5 uM measured after 48 hrs by annexinV-FITC/propidium iodide staining based flow cytometry analysis (reference value: 2.34 %); assay type: functional
DU-145 [19] = test: Induction of apoptosis in human DU145 cells assessed as necrotic cells at 3.5 uM measured after 48 hrs by annexinV-FITC/propidium iodide staining based flow cytometry analysis (reference value: 0.52 %); assay type: functional
DU-145 [20] = test: Induction of apoptosis in human DU145 cells assessed as necrotic cells at 1.5 uM measured after 48 hrs by annexinV-FITC/propidium iodide staining based flow cytometry analysis (reference value: 0.52 %); assay type: functional
DU-145 [21] = test: Induction of apoptosis in human DU145 cells assessed as late apoptotic cells at 1.5 uM measured after 48 hrs by annexinV-FITC/propidium iodide staining based flow cytometry analysis (reference value: 0.05 %); assay type: functional
Tubulin (Homo sapiens) [22] = target: T1, Tubulin (Homo sapiens); test: Inhibition of tubulin polymerization in human HeLa cells assessed as disruption of microtubule network at 10 uM measured after 24 hrs by immunofluorescence assay; assay type: cell-based
DU-145 [23] = test: Cell cycle arrest in human DU145 cells assessed as accumulation at G0/G1 phase at 3 uM measured after 24 hrs by propidium iodide staining based flow cytometry analysis (reference value: 58.2 %); assay type: functional
DU-145 [24] = test: Induction of apoptosis in human DU145 cells assessed as late apoptotic cells at 5 uM measured after 48 hrs by annexinV-FITC/propidium iodide staining based flow cytometry analysis (reference value: 0.05 %); assay type: functional
DU-145 [25] = test: Cell cycle arrest in human DU145 cells assessed as accumulation at G0/G1 phase at 1.5 uM measured after 24 hrs by propidium iodide staining based flow cytometry analysis (reference value: 58.2 %); assay type: functional
DU-145 [26] = test: Induction of apoptosis in human DU145 cells assessed as live cells at 3.5 uM measured after 48 hrs by annexinV-FITC/propidium iodide staining based flow cytometry analysis (reference value: 97.09 %); assay type: functional
DU-145 [27] = test: Induction of apoptosis in human DU145 cells assessed as early apoptotic cells at 1.5 uM measured after 48 hrs by annexinV-FITC/propidium iodide staining based flow cytometry analysis (reference value: 2.34 %); assay type: functional
[28] = Homo sapiens, HEK293, 48 h, read-out: IC50

SMILES	IC50 (DU-145 [2]) [µM]	IC50 [5] [µM]	IC50 (HeLa) [µM]	inhibition (DU-145 [2])	IC50 (HEK293; [28]) [µM]	inhibition (Homo sapiens)	inhibition (A549)	IC50 (A549) [µM]	inhibition (HeLa)	further results
COc1cccc2c1C(=O)c1c(O)c3c(c(O)c1C2=O)C[C@@](O)(C(=O)CO)C[C@@H]3O[C@H]1C[C@H](N)[C@H](O)[C@H](C)O1 [DOXORUBICIN]	2.54	2.23	1.94							Activity [1]: 60.97%; IC50 (HEK293; hek293): Not Active; Activity (DU-145 [3]): 7.83%; Activity (DU-145 [4]): 46.09%; Activity [6]: 37.21%; Activity [7]: 1.77%; Activity [8]: 0.05%; Activity (DU-145 [9]): 46.08%; Activity (DU-145 [10]): 0%
CCCCC(=O)O/N=C1\C=C2C[C@H](C)[C@@]3(C)Cc4cc(OC)c(OC)c(OC)c4C23C(OC)=C1OC (some centres undefined)	22.9	14.8	12.9	Dose-dependent effect	112	Dose-dependent effect	Dose-dependent effect	6.9	Dose-dependent effect	
COC1=C(OC)C23C(=C/C1=N\OC(=O)C1CC1)C[C@H](C)[C@@]2(C)Cc1cc(OC)c(OC)c(OC)c13 (some centres undefined)	50.5	60	15.2	Dose-dependent effect	65.9	Dose-dependent effect	Dose-dependent effect	7.8	Dose-dependent effect	
CCOC(=O)CCC(=O)O/N=C1\C=C2C[C@H](C)[C@@]3(C)Cc4cc(OC)c(OC)c(OC)c4C23C(OC)=C1OC (some centres undefined)	25	22.6	8.37	Dose-dependent effect	85.4	Dose-dependent effect	Dose-dependent effect	8.4	Dose-dependent effect	
COC(=O)Nc1nc2cc(C(=O)c3cccs3)ccc2[nH]1										inhibition (Tubulin (Homo sapiens) [11]): Active
COc1cc2c(c(OC)c1OC)-c1c(cc(OC)c(OC)c1OC)C[C@](C)(O)[C@@H](C)C2 [SCHIZANDRIN]	5.38	5.36	5.06	Dose-dependent effect	80.5	Dose-dependent effect	Dose-dependent effect	8.5	Dose-dependent effect	
COC1=C(OC)C23C(=C/C1=N\OC(=O)c1c(Cl)cc(Cl)cc1Cl)C[C@H](C)[C@@]2(C)Cc1cc(OC)c(OC)c(OC)c13 (some centres undefined)	37.5	40.7	50.8	Dose-dependent effect	79.8	Dose-dependent effect	Dose-dependent effect	7.4	Dose-dependent effect	
COC1=C(OC)C23C(=C/C1=N\OC(=O)c1ccc(Br)cc1)C[C@H](C)[C@@]2(C)Cc1cc(OC)c(OC)c(OC)c13 (some centres undefined)	20.3	9.7	7.4	Dose-dependent effect	135	Dose-dependent effect	Dose-dependent effect	5.92	Dose-dependent effect	
COC1=C(OC)C23C(=C/C1=N\O)C[C@H](C)[C@@]2(C)Cc1cc(OC)c(OC)c(OC)c13 (some centres undefined)	7.55	55.9	50.1	Dose-dependent effect	54.8	Dose-dependent effect	Dose-dependent effect	8.52	Dose-dependent effect	
CCC(=O)O/N=C1\C=C2C[C@H](C)[C@@]3(C)Cc4cc(OC)c(OC)c(OC)c4C23C(OC)=C1OC (some centres undefined)	3.42	60.5	45.3	Dose-dependent effect	65.1	Dose-dependent effect	Dose-dependent effect	6.5	Dose-dependent effect	Activity (DU-145 [12]): 75.71%; Activity (DU-145 [13]): 27.56%; Activity (DU-145 [14]): 3.87%; Activity (DU-145 [15]): 71.07%; Activity (DU-145 [16]): 0.04%; Activity (DU-145 [17]): 68.98%; Activity (DU-145 [18]): 29.44%; Activity (DU-145 [19]): 0.07%; inhibition (Tubulin (Homo sapiens) [11]): Active; Activity (DU-145 [20]): 0%; Activity (DU-145 [21]): 0.96%; inhibition (Tubulin (Homo sapiens) [22]): Active; Activity (DU-145 [23]): 66.4%; Activity (DU-145 [24]): 1.54%; Activity (DU-145 [25]): 66.97%; Activity (DU-145 [26]): 68.5%; Activity (DU-145 [27]): 23.33%
COC1=C(OC)C23C(=CC1=O)C[C@H](C)[C@@]2(C)Cc1cc(OC)c(OC)c(OC)c13 (some centres undefined)	9.6	50.5	4.23	Dose-dependent effect	49.7	Dose-dependent effect	Dose-dependent effect	7.8	Dose-dependent effect	
COC1=C(OC)C23C(=C/C1=N\OC(=O)c1ccc(F)cc1)C[C@H](C)[C@@]2(C)Cc1cc(OC)c(OC)c(OC)c13 (some centres undefined)	16.6	20.9	5.5	Dose-dependent effect	81.6	Dose-dependent effect	Dose-dependent effect	9.02	Dose-dependent effect	
COC1=C(OC)C23C(=C/C1=N\OC(=O)C(C)C)C[C@H](C)[C@@]2(C)Cc1cc(OC)c(OC)c(OC)c13 (some centres undefined)	25.5	15.4	4.74	Dose-dependent effect	80.5	Dose-dependent effect	Dose-dependent effect	6.08	Dose-dependent effect	

From ChEMBL document CHEMBL4622952, “Synthesis and biological evaluation of Schizandrin derivatives as tubulin polymerization inhibitors” (Bioorg Med Chem Lett, 2020)
